The target in this assay is T1, Son of sevenless homolog 1 (Homo sapiens, UniProt Q07889).
T1 sequence (Q07889 whole entry): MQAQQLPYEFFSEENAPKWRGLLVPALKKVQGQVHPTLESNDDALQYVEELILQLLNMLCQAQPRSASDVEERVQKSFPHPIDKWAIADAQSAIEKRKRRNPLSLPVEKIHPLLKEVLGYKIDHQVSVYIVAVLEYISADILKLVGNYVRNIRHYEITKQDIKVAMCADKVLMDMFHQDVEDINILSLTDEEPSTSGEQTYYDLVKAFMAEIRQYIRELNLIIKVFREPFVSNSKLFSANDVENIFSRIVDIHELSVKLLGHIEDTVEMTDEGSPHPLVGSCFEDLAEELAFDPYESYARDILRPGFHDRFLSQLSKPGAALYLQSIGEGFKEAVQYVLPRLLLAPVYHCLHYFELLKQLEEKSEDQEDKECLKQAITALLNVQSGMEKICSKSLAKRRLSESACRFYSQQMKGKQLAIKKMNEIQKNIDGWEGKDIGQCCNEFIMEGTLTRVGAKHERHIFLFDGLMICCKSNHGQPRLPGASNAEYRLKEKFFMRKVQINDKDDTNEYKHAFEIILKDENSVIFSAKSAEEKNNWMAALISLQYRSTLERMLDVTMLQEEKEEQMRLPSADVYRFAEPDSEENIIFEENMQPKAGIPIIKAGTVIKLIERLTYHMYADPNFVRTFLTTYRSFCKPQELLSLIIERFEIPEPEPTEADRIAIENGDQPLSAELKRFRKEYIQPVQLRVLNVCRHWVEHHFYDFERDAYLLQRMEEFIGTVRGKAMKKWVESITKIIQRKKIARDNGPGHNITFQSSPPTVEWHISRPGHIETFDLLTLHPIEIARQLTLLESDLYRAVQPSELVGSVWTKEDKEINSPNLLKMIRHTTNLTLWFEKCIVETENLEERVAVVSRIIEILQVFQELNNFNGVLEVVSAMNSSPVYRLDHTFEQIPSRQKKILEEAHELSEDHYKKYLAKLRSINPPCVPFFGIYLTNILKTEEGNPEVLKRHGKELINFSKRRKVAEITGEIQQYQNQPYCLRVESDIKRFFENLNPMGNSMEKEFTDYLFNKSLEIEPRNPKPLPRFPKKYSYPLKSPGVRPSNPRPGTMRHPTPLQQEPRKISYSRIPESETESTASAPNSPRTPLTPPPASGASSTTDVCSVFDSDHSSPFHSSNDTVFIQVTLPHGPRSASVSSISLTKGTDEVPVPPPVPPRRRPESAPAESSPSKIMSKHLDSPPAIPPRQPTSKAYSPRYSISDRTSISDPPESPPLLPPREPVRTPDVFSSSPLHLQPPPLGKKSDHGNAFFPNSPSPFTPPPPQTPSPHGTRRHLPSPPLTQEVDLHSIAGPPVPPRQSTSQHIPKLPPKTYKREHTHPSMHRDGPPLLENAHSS
Description: Ras-SOS Interaction Assay. From the text: The ability of any compound of the present disclosure to reduce a Ras protein signaling output by, e.g., interfering or disrupting interaction (or binding) between SOS1 and a Ras protein can be assessed in vitro. For example, the equilibrium interaction of human SOS1 (hSOS1) with human wildtype Kras or K-Ras mutant (e.g., hK-Ras G12C mutant, or hK-RasG12C) can be assessed as a proxy or an indication for a subject compound's ability to inhibit SOS. Detection of such interaction is achieved by measuring homogenous time-resolved fluorescence resonance energy transfer (HTRF) from (i) a fluorescence resonance energy transfer (FRET) donor (e.g., antiGST-Europium) that is bound to GST-tagged K-RasG12C to (ii) a FRET acceptor (e.g., anti-6His-XL665) bound to a His-tagged hSOS1. […] A Ras working solution is prepared in assay buffer containing typically 10 nM of the protein construct (e.g., GST-tagged hK-RasG12C) and 2 nM of the FRET donor (e.g., antiGST-Eu(K) from Cisbio, France). A SOS1 working solution is prepared in assay buffer containing typically 10 nM of the protein construct (e.g., His-hSOS1) and 10 nM of the FRET acceptor (e.g., anti-6His-XL665 from Cisbio, France). An inhibitor control solution is prepared in assay buffer containing 10 nM of the FRET acceptor without the SOS1 protein. A fixed reaction mixture with or without test compound is transferred into a 384-well plate. Ras working solution is added to all wells of the test plate. SOS1 working solution is added to all wells except for those that are subsequently filled the inhibitor control solution.

As to `COc1nc2nc(C)nc(N[C@H](C)c3cccc(C(F)F)c3F)c2cc1C1CCN(C(=O)NC2COC2)CC1` [US11648254, Compound 116], the concentration for half-maximal inhibition (IC50) (in general, the concentration needed to halve the response being measured) was below 100 nM.
For the compound `COc1nc2nc(C)nc(N[C@H](C)c3cccc(C(F)(F)C4CCCO4)c3F)c2cc1C1CCS(=O)(=O)CC1` (some centres not stated) [US11648254, Compound 148], the half-maximal inhibitory concentration (IC50) was below 100 nM.
`COc1nc2nc(C)nc(N[C@H](C)c3cccc(C(F)F)c3F)c2cc1[C@H]1C[C@@H](NC(=O)C2COC2)C1` [US11648254, Compound 125] yielded a half-maximal inhibitory concentration (IC50) below 100 nM.
For `COc1nc2nc(C)nc(N[C@H](C)c3cccc(C(F)(F)F)c3C)c2cc1C1CCS(=O)(=O)CC1` [US11648254, Compound 118] the value was below 100 nM.
In turn, `COc1nc2ncnc(N[C@H](C)c3cccc(C(F)(F)F)c3C)c2cc1C1CCN(C2CCOCC2)CC1` [US11648254, Compound 374] came in with an IC50 below 100 nM.
The compound `Cc1nc(N[C@H](C)c2cccc(C(F)F)c2F)c2cc(C3(C#N)CC3)c(O[C@H]3CCOC3)nc2n1` [US11648254, Compound 297] displayed a 50% inhibitory concentration (IC50) below 100 nM.
With `COCCOc1nc2nc(C)nc(N[C@H](C)c3cccc(C(F)F)c3F)c2cc1C1(C#N)CC1` [US11648254, Compound 151] the figure was below 100 nM; with `COc1nc2nc(C)nc(N[C@H](C)c3cccc(C(F)(F)C4CCN(C(C)C)CC4)c3F)c2cc1C1(C#N)CC1` [US11648254, Compound 377], below 100 nM; with `COc1nc2ncnc(N[C@H](C)c3cccc(C(F)(F)F)c3C)c2cc1C1CCS(=O)(=O)CC1` [US11648254, Compound 373], below 100 nM.
In turn, `COc1nc2nc(C)nc(N[C@H](C)c3cccc(C(F)(F)C4CN(C)C4)c3)c2cc1N1CCS(=O)(=O)CC1` [US11648254, Compound 272] came in with an IC50 below 100 nM.
For `Cc1nc(N[C@H](C)c2cccc(C(F)F)c2F)c2cc(S(=O)(=O)C3CCN(C)CC3)c(Cl)nc2n1` [US11648254, Compound 132] the value was below 100 nM; for `COc1nc2nc(C)nc(N[C@H](C)c3cccc(C(C)(F)F)c3F)c2cc1C1CCS(=O)(=O)CC1` [US11648254, Compound 150], below 100 nM.
